The values that follow come from publication PMC4977286 (Frontiers in Pharmacology, 2016).

Read-outs that look alike come from different tables or passages of the source.

Series [1] addresses T1, UGT1A1 (Homo sapiens, UniProt P22309).
T1 sequence (P22309 26-533): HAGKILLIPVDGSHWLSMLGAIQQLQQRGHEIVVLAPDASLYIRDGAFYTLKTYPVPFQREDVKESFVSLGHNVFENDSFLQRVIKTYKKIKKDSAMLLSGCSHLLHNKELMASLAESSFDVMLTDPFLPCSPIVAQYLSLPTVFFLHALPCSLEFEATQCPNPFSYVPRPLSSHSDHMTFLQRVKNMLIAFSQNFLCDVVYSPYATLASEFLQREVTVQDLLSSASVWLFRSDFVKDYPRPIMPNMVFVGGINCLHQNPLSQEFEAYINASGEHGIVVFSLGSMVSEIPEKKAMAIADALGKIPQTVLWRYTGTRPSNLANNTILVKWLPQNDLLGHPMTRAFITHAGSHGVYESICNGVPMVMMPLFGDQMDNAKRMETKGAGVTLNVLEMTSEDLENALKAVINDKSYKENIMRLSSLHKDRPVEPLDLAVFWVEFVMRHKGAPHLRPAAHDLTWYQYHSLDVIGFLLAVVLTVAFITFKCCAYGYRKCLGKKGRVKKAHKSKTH

In series [2] the test system is rat liver microsomes. To be noted: for TNP-G formation, Liver microsome: rat. Background: Microsomes from liver hold many membrane-bound enzymes, among them those of drug oxidation.
Series [3] has as its target MRP2 (Rattus norvegicus, UniProt Q63120). The series can be described thus: Bile clearance of TNP-G in SCRH with MRP2 inhibitors or inducer. To be noted: for BEI of TNP-G, % of the control cells: TNP-G 20 μM; for BEI of TNP-G, % of the control cells / CLbile, int of TNP-G decreased by: inhibitor 100 μM.
The target in series [4] is T2, MRP2 (Homo sapiens, UniProt Q92887). The series is classed as biochemical. Also noted: purchased BD Gentest Co. (Woburn, MA).
T2 sequence (Q92887 whole entry): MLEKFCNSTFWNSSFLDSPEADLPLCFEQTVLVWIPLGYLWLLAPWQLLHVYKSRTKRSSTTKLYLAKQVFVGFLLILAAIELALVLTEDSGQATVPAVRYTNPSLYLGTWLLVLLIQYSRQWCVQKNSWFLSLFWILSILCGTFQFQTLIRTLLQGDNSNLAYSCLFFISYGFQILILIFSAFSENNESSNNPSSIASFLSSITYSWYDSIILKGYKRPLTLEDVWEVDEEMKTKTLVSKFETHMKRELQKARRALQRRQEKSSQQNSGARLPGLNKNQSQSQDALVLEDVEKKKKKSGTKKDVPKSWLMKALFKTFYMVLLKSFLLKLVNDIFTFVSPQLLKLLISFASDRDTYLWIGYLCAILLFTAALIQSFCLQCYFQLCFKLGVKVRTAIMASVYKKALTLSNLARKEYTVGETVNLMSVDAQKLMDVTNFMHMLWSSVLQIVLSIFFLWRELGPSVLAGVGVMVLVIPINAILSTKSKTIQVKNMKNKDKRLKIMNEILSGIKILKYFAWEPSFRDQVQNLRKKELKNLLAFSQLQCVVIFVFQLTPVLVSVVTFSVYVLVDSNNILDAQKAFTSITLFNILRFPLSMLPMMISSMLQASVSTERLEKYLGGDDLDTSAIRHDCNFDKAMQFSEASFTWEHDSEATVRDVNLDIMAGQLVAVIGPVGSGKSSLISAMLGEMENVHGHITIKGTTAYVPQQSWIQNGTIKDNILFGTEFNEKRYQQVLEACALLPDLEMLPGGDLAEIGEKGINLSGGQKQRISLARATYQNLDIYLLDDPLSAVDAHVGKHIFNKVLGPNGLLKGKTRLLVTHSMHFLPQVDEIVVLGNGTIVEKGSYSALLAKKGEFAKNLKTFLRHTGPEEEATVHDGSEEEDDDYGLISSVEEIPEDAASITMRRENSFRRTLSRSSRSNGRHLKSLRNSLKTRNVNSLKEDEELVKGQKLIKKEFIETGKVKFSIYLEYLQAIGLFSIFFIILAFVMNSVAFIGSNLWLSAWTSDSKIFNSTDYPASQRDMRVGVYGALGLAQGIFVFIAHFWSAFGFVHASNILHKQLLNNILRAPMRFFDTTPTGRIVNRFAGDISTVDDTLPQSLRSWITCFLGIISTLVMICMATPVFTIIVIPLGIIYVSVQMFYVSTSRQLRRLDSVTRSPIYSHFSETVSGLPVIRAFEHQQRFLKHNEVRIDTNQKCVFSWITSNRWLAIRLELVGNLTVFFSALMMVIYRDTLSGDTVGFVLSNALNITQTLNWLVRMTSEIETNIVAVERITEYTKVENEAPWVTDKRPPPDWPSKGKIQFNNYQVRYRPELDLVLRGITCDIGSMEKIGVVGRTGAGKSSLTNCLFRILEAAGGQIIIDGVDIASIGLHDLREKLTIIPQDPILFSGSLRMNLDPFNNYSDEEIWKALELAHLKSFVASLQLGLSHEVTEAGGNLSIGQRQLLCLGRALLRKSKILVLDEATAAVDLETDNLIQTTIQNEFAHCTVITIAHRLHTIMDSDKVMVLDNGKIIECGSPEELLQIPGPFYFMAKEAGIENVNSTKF
For series [5] the following is noted: rat, in vivo.
Series [6] deals with P-gp.
For series [7], the target named is T3, BCRP (Homo sapiens, UniProt Q9UNQ0).
T3 sequence (Q9UNQ0 1-655): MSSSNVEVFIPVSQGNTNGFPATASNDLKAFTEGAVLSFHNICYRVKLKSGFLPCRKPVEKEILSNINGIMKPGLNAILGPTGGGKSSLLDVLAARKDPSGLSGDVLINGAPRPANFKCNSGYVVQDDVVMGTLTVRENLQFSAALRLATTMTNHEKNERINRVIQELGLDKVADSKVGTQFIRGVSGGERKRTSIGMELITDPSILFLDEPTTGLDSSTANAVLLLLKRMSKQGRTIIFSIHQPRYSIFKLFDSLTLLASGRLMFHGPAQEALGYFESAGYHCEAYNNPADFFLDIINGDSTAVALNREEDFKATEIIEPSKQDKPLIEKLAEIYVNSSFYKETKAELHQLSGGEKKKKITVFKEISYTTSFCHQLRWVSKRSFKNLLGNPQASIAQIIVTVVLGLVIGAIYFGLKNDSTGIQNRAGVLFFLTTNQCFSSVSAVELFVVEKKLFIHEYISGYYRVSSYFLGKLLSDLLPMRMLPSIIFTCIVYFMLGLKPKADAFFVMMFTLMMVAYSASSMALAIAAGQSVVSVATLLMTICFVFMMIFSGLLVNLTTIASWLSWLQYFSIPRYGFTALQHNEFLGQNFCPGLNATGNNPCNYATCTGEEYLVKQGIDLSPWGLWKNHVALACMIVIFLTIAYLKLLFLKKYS

The target of series [8] is MDR1 (Homo sapiens, UniProt P08183).
Sequence of MDR1 (P08183 whole entry): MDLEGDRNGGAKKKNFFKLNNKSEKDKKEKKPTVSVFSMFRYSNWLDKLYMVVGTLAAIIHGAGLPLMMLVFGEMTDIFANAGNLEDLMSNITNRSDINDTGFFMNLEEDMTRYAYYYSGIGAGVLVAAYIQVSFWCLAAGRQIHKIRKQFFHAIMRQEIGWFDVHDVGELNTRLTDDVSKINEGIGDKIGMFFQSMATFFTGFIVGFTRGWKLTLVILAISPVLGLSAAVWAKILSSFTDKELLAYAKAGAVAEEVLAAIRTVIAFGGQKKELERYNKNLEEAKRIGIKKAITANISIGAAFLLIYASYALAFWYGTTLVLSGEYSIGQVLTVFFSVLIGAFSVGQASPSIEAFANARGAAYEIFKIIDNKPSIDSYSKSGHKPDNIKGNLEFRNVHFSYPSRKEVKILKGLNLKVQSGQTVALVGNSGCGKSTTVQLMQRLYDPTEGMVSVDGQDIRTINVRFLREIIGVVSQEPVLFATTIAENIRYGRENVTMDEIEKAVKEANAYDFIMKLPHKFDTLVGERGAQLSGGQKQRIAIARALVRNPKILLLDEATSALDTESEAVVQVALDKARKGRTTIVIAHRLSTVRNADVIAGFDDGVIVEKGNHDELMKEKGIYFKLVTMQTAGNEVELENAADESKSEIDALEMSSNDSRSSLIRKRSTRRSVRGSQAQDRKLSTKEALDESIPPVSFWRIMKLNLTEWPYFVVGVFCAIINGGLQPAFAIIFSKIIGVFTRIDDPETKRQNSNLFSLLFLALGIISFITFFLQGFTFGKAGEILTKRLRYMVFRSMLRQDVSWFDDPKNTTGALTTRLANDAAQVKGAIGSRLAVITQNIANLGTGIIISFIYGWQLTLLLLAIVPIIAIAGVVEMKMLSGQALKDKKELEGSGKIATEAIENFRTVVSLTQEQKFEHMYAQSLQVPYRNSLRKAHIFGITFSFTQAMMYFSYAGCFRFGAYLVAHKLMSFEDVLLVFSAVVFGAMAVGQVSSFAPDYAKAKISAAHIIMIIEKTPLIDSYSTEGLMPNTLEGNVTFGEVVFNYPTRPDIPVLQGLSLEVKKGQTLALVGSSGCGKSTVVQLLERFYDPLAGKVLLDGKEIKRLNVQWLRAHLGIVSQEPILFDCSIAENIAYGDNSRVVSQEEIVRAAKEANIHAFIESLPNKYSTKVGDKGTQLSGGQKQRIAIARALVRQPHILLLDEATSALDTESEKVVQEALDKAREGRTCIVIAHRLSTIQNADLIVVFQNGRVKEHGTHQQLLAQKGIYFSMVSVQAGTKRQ
Series [9] deals with T2, MRP2.
Series [10] can be described thus: in vivo. The conditions noted are these: mouse, po, 12 mg/kg.
For series [11] the following is noted: cited from earlier work.
Series [12] is described as follows: in vivo. To be noted: rat.
The conditions of series [13]: mouse, in vivo.
Series [14] addresses P-gp (Homo sapiens, UniProt P08183).
The test system of series [15] is sandwich-cultured rat hepatocytes (SCRH).

Sequence of MRP2 (Rattus norvegicus, UniProt Q63120) (Q63120 whole entry): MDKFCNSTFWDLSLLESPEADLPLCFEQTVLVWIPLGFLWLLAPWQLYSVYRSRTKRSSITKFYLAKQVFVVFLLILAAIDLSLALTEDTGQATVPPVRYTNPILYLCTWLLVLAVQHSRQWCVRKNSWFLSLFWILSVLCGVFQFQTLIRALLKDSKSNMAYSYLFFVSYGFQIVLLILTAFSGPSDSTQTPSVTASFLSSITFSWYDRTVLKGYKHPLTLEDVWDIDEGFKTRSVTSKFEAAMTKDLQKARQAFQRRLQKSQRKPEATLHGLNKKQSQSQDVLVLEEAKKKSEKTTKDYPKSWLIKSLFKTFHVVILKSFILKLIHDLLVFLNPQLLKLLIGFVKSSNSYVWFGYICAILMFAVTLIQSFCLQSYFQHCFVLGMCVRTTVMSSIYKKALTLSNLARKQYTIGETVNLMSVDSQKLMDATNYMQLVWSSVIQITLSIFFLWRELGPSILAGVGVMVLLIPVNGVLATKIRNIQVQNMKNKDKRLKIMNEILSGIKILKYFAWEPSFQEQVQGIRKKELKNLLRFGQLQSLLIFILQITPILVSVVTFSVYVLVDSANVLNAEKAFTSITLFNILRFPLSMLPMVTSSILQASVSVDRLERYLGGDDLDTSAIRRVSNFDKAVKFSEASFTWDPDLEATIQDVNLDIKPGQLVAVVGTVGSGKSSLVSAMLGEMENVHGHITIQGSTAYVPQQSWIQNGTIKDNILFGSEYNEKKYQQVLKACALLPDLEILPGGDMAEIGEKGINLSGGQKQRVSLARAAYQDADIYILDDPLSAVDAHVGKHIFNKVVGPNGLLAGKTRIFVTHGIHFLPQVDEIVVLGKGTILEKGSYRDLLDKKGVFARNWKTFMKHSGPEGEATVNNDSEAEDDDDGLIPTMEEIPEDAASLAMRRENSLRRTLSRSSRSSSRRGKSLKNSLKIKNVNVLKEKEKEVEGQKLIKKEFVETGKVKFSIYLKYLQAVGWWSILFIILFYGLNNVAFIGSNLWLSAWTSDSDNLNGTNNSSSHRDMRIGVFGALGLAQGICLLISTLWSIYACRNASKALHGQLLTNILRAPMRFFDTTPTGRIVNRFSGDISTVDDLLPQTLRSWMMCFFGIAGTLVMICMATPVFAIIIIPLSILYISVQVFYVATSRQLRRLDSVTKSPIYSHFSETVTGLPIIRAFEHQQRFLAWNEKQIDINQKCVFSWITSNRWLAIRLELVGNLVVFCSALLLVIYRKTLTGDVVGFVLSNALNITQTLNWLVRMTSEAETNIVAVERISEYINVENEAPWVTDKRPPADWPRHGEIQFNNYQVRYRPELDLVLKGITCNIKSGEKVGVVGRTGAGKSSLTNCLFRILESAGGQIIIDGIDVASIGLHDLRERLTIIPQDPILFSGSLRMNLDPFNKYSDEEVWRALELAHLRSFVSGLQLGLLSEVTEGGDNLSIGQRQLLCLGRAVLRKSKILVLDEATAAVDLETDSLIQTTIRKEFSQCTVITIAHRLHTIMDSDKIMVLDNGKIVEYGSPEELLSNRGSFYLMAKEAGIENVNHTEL

As to `C[C@@H]1C[C@H]2[C@@H]3CCC4=CC(=O)C=C[C@]4(C)[C@@]3(F)[C@@H](O)C[C@]2(C)[C@@]1(O)C(=O)CO` [Dexamethasone, dexamethasone], in series [1], the “TNP-G formation, UGT1A1” value amounted to 1542.4 ± 27.9 ng/mL. In addition, the “TNP-G formation, Liver microsome” value in series [2] was 2219.3 ± 52.8 ng/mL.

For the compound `CN(Cc1cnc2nc(N)nc(N)c2n1)c1ccc(C(=O)N[C@@H](CCC(=O)O)C(=O)O)cc1` [Methotrexate, methotrexate], in series [3], the “BEI of TNP-G, % of the control cells” value was 20% and the “CLbile, int of TNP-G decreased by” value was 74.2%.

Take `CCCN(CCC)S(=O)(=O)c1ccc(C(=O)O)cc1` [Probenecid, probenecid]: in series [1], the “TNP-G formation, UGT1A1” value was 1527.5 ± 83.9 ng/mL. Besides, the “effect on TNP glucuronidation” value in series [2] is reported as “no significant effect”. Moreover, the “TNP-G formation, Liver microsome” value in [2] (60 min, 100 µM) stood at 2191.5 ± 123.1 ng/mL. Further, the “Vanadate-sensitive ATPase activities, MRP2” value in series [4] was determined as 5.7 ± 0.2 nmol/min/mg. The “24 h biliary excretion rate of TNP-G, % of the control level” value in series [5] was found to be 74%. Also, in [3], the “BEI of TNP-G, % of the control cells” value is given as 22.8% and the “CLbile, int of TNP-G decreased by” value is recorded as 78.1%.

For `O=c1c(O)c(-c2ccc(O)c(O)c2)oc2cc(O)cc(O)c12` [Quercetin, quercetin], the “TNP-G formation, UGT1A1” value in [1] was 1590.8 ± 30.5 ng/mL. Moreover, in series [6] (rat), the “BEI of TNP, fold compared with the control” value amounted to 2.1 fold and the “CLbile, int of TNP, fold compared with the control” value worked out at 1.7 fold. For the same compound, the “TNP-G formation, Liver microsome” value in series [2] (60 min, 100 µM) was found to be 2170.7 ± 33.6 ng/mL.

Turning to `O=C(O)c1cc(/N=N/c2ccc(S(=O)(=O)Nc3ccccn3)cc2)ccc1O` [Sulfasalazine, sulfasalazine, reference compound], the “Vanadate-sensitive ATPase activities, BCRP” value in series [7] is on record as 32.2 ± 1.3 nmol/min/mg.

One may read the AUC(0-t) as exposure summed from dosing to a finite time, without extrapolation to infinity. By MRT is commonly meant a mean duration of stay, worked out from the concentration-time curve. One may read the half-life as the time needed for the level to fall by half in the phase considered. Higher therefore signals slow loss. On to `COC12CCC3(CC1C(C)(O)CCc1cccs1)C1Cc4ccc(OC5OC(C(=O)O)C(O)C(O)C5O)c5c4C3(CCN1CC1CC1)C2O5` (stereo not shown) [TNP-G, thienorphine-3-glucuronide], for which the “Vanadate-sensitive ATPase activities, MDR1” value in series [8] amounted to 4.2 ± 0.8 nmol/min/mg. Also, the “intracellular concentration, increase compared with the NC-siRNA group” value in [9] was 2.1 fold. Moreover, in [7], the “Vanadate-sensitive ATPase activities, BCRP” value stood at 5.8 ± 0.8 nmol/min/mg. The same compound came in with an AUC(0-t) in series [10] (AUC(0-t)) of 108 ± 19.6 ng·h/mL. The MRT in series [10] (MRT) turned out to be 5.7 ± 2 h. Further, the half-life in series [10] (t1/2) is 4.3 ± 1.7 h. Besides, the “fu,p (plasma unbound fraction)” value in series [11] is given as 0.02. Also, the dose excreted in series [12] is ≤ 28%. Further, in series [13], the “increase in AUC0-t compared to the NC-siRNA group” value was found to be 1.9 fold and the “increase in Cmax compared to the NC-siRNA group” value was 2.7 fold. In addition, in [13] (po, 12 mg/kg), the “AUC(0-t)” value came to 202.7 ± 70.7 ng·h/mL, the MRT is reported as 6.7 ± 1.7 h and the t1/2 is reported as 6.1 ± 1.1 h. In series [14], the “intracellular concentration, increase compared with the NC-siRNA group” value is reported as “not impacted”. Moreover, in series [4], the “Transporter substrate finding, MRP2” value was “MRP2 substrate” and the “Vanadate-sensitive ATPase activities, MRP2” value was found to be 4.1 ± 0.6 nmol/min/mg. Also, the “CLbile,obs From Eq.5” value in [5] was found to be 6.9 ± 0.5 mL/min/kg. Further, in series [15], the “CLbile, int From Eq. 2” value stood at 11.2 ± 2.7 mL/min/kg; the “CLbile,pred (plasma total concentration) relative to measured CLbile,obs” value was ~1.3 fold; the “CLbile,pred From Eq. 3” value turned out to be 8.7 ± 1.7 mL/min/kg; the “CLbile,pred From Eq. 4” value turned out to be 0.2 ± 0.01 mL/min/kg. Besides, the “average BEI (biliary excretion index)” value in [15] turned out to be 41.4 ± 2.6. Further, the “CLbile,int of TNP-G” value in [3] (dexamethasone 0 μM (control)) amounted to 4.2 ± 0.1 mL/min/kg. Moreover, the “CLbile,int of TNP-G” value in [3] (methotrexate 0 μM (control)) turned out to be 3.1 ± 0.4 mL/min/kg. For the same compound, the “CLbile,int of TNP-G” value in [3] (probenecid 0 μM (control)) was found to be 1.6 ± 0.03 mL/min/kg.

Regarding `COc1cc2c(cc1OC)CN(CCc1ccc(NC(=O)c3cc(OC)c(OC)cc3NC(=O)c3cnc4ccccc4c3)cc1)CC2` [Tariquidar, tariquidar], the “TNP-G formation, UGT1A1” value in [1] (60 min, 100 µM) was 1533.8 ± 25.4 ng/mL. In series [6], the “BEI of TNP, % of the control cells” value amounted to 34.5% and the “CLbile, int of TNP reduced to” value came out at 83.1%. In addition, in [2] (60 min, 100 µM), the “TNP-G formation, Liver microsome” value is 2154.6 ± 26.9 ng/mL. Besides, in [5], the “cumulative bile excretion of TNP, % of the control level” value is on record as 45%.
